Patent publication US20160222021A1, “ARYL ETHER-BASE KINASE INHIBITORS” (BRISTOL-MYERS SQUIBB COMPANY, priority 2013, published 2016)

The compounds below were run against T1, GST-Xa-hAAK1 (Homo sapiens, UniProt Q2M2I8) (assay: AAK1 Kinase Assay). Conditions: ATP 22 μM; IC50 ranges.
T1 construct: made in house
Type: biochemical
Protocol: The assays were performed in U-bottom 384-well plates. The final assay volume was 30 μl prepared from 15 μl additions of enzyme and substrates (fluoresceinated peptide (5-FAM)-Aha-[…]-NH2 and ATP) and test compounds in assay buffer (10 mM Tris-HCL pH 7.4, 10 mM MgCl2, 0.01% Tween-20 and 1.0 mM DTT). The reactions were initiated by the combination of bacterially expressed, GST-Xa-hAAK1 with substrates and test compounds. The reactions were incubated at room temperature for 3 hours and terminated by adding 60 μl of 35 mM EDTA buffer to each sample. The reactions were analyzed on the Caliper LabChip 3000 (Caliper, Hopkinton, Mass.) by electrophoretic separation of the fluorescent substrate and phosphorylated product. […] The final concentration of reagents in the assays are ATP, 22 μM; (5-FAM)-Aha-[…]-NH2, 1.5 μM; GST-Xa-hAAK1, 3.5 nM; and DMSO, 1.6%. Dose response curves were generated to determine the concentration required inhibiting 50% of kinase activity (IC50). Compounds were dissolved at 10 mM in dimethylsulfoxide (DMSO) and evaluated at eleven concentrations. IC50 values were derived by non-linear regression analysis.

T1 sequence (Q2M2I8 whole entry): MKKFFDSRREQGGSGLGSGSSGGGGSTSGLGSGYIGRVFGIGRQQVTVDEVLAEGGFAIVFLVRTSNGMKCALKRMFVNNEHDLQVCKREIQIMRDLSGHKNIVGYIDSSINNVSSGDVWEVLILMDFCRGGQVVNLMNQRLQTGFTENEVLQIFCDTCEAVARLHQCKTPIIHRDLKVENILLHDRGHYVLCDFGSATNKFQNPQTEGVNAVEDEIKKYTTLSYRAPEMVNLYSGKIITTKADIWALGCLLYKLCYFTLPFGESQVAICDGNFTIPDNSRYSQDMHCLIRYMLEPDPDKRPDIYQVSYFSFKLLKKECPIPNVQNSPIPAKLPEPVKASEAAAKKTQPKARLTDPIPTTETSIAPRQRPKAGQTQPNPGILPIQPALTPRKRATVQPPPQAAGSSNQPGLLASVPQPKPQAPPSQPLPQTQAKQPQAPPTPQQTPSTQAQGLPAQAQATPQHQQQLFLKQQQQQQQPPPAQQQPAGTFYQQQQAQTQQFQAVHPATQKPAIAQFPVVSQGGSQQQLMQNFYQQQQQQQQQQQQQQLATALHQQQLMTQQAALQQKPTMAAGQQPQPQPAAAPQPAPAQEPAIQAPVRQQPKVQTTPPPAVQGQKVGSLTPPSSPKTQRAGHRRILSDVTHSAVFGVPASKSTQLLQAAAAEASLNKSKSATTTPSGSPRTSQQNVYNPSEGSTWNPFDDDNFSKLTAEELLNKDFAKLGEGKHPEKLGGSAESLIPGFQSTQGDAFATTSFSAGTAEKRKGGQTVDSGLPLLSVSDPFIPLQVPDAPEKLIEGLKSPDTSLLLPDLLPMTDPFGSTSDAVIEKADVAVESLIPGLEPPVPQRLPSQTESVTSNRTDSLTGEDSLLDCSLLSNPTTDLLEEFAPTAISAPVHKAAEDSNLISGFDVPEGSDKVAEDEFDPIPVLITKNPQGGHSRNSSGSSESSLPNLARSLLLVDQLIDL

Question: Which IC50 does the source give for `CC(=O)Nc1cc2c(cn1)COc1cc(OC[C@H](CC(C)C)NS(C)(=O)=O)ccc1-2` [Example 101, (S)—N-(8-((4-methyl-2-(methylsulfonamido)pentyl)oxy)-5H-chromeno[3,4-c]pyridin-2-yl)acetamide] here?
Answer: Its IC50 is 0.01 to 0.1 µM.

Question: Which IC50 does the source give for `[2H]C1([2H])Oc2cc(OC[C@@](C)(N)CC(C)C)ccc2-c2cc(NC(=O)OC)ncc21` [Example 97, (S)-methyl (8-((2-amino-2,4-dimethylpentyl)oxy)-5,5-deutero-5H-chromeno[3,4-c]pyridin-2-yl)carbamate] here?
Answer: The IC50 was 0.001 to 0.01 µM.

Question: With `CC[C@@H](N)COc1ccc2c(c1)OCc1cnccc1-2` [Example 3, (R)-1-(5H-chromeno[3,4-c]pyridin-8-yloxy)butan-2-amine] as the compound, how does the IC50 read?
Answer: The IC50 was 0.1 to 1.2 µM.

Question: `CC(C)C[C@@H](N)COc1ccc2c(c1)OC(C1CC1)c1cnccc1-2` (single isomer, unassigned) [Example 9a] was tested. Which IC50 did it give?
Answer: The IC50 was 0.1 to 1.2 µM.

Question: For `N[C@@H](COc1ccc2c(c1)OCc1cnccc1-2)Cc1ccccc1` [Example 2, (R)-1-(5H-chromeno[3,4-c]pyridin-8-yloxy)-3-phenylpropan-2-amine], which IC50 is on record?
Answer: Its IC50 is 0.1 to 1.2 µM.

Question: With `[2H]C([2H])(Oc1ccc2c(c1)OCc1cnc(NC(=O)OCC)cc1-2)C(C)(N)CC(C)C` (racemic) [Example 96, ethyl (8-((2-amino-1,1-deutero-2,4-dimethylpentyl)oxy)-5H-chromeno[3,4-c]pyridin-2-yl)carbamate] as the compound, how does the IC50 read?
Answer: Its IC50 is 0.001 to 0.01 µM.

Question: Which IC50 does the source give for `Cc1cc2c(cn1)c(=O)oc1cc(OC[C@@](C)(N)CC(C)C)c(Cl)cc12` [Example 103, (S)-8-((2-amino-2,4-dimethylpentyl)oxy)-9-chloro-2-methyl-5H-chromeno[3,4-c]pyridin-5-one] here?
Answer: Its IC50 is 0.1 to 1.2 µM.

Question: With `CC(=O)Nc1cc2c(cn1)COc1c-2ccc(OC[C@@](C)(N)CC(C)C)c1OC(F)F` [Example 87, (S)—N-(8-((2-amino-2,4-dimethylpentyl)oxy)-7-(difluoromethoxy)-5H-chromeno[3,4-c]pyridin-2-yl)acetamide] as the compound, how does the IC50 read?
Answer: Its IC50 is under 0.001 µM.

Question: How did the IC50 turn out when `COC(=O)Nc1cc2c(cn1)COc1c-2ccc(OC[C@@](C)(N)CC(C)C)c1OC(F)F` [Example 89, (S)-methyl (8-((2-amino-2,4-dimethylpentyl)oxy)-7-(difluoromethoxy)-5H-chromeno[3,4-c]pyridin-2-yl)carbamate] was run?
Answer: The IC50 was under 0.001 µM.

Question: `COC(=O)Nc1cc2c(cn1)COc1c-2ccc(OCC(C)(N)CC(C)C)c1C#N` (racemic) [Example 79, methyl (8-((2-amino-2,4-dimethylpentyl)oxy)-7-cyano-5H-chromeno[3,4-c]pyridin-2-yl)carbamate] was tested. Which IC50 did it give?
Answer: Its IC50 is under 0.001 µM.

Question: Which IC50 does the source give for `COC(=O)Nc1cc2c(cn1)COc1cc(OC[C@@](C)(N)CC(C)C)c(Cl)cc1-2` [Example 83, (S)-methyl (8-((2-amino-2,4-dimethylpentyl)oxy)-9-chloro-5H-chromeno[3,4-c]pyridin-2-yl)carbamate] here?
Answer: The IC50 was 0.001 to 0.01 µM.

Same assay, conditions: ATP 22 μM; numeric values

Question: For `CC(=O)Nc1cc2c(cn1)COc1cc(OC[C@@](C)(N)CC(C)C)ccc1-2` [Example 45, (S)—N-(8-((2-amino-2,4-dimethylpentyl)oxy)-5H-chromeno[3,4-c]pyridin-2-yl)acetamide], which IC50 is on record?
Answer: The IC50 was 0.00087 µM.

Question: With `CC(=O)Nc1nccc2c1C(C1CC1)Oc1cc(OC[C@@H](N)CC(C)C)ccc1-2` (stereo partly drawn) [Example 48, N-(8-(((S)-2-amino-4-methylpentyl)oxy)-5-cyclopropyl-5H-chromeno[3,4-c]pyridin-4-yl)acetamide] as the compound, how does the IC50 read?
Answer: Its IC50 is 1.2 µM.

Question: With `CC1Oc2cc(OC[C@@H](N)CC3CC3)ccc2-c2ccncc21` (stereo partly drawn) [Example 56, (2S)-1-cyclopropyl-3-((5-methyl-5H-chromeno[3,4-c]pyridin-8-yl)oxy)propan-2-amine] as the compound, how does the IC50 read?
Answer: Its IC50 is 0.021 µM.
